Measured values reported in patent US10239843B2 (CANCER RESEARCH TECHNOLOGY LIMITED, priority 2014, dated 2019).
Where two headings read alike, the source gives them in different places.

Columns and labels:
[1] = target: Human Full Length PARG (Homo sapiens (Human), UniProt Q86W56); assay: PARG enzyme assay (TR-FRET); format: biochemical
[2] = test system: PARG in HeLa cell line; assay: PARG cell assay (PAR chain immunofluorescence after MMS); format: cell-based; conditions: HeLa cells
Method in brief: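 Nuclear poly(ADP-ribose) chains in HeLa cells are read by indirect immunofluorescence with a mouse anti-PAR antibody applied overnight at 4° C after fixing and permeabilising. Cells get 1 h of compound, then 50 μg/mL MMS (final) for another hour. PAR persisting at that point reflects PARG inhibition.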

[3] = Homo sapiens, MMS treatment, read-out: PARG Cell IC50
[4] = read-out: PARG Biochem IC50 Geomean
[5] = Homo sapiens, MMS 50 μg/mL, read-out: PARG Cell IC50 Geomean
[6] = MMS treatment, read-out: PARG Cell IC50

Chain of Human Full Length PARG (Q86W56 whole entry): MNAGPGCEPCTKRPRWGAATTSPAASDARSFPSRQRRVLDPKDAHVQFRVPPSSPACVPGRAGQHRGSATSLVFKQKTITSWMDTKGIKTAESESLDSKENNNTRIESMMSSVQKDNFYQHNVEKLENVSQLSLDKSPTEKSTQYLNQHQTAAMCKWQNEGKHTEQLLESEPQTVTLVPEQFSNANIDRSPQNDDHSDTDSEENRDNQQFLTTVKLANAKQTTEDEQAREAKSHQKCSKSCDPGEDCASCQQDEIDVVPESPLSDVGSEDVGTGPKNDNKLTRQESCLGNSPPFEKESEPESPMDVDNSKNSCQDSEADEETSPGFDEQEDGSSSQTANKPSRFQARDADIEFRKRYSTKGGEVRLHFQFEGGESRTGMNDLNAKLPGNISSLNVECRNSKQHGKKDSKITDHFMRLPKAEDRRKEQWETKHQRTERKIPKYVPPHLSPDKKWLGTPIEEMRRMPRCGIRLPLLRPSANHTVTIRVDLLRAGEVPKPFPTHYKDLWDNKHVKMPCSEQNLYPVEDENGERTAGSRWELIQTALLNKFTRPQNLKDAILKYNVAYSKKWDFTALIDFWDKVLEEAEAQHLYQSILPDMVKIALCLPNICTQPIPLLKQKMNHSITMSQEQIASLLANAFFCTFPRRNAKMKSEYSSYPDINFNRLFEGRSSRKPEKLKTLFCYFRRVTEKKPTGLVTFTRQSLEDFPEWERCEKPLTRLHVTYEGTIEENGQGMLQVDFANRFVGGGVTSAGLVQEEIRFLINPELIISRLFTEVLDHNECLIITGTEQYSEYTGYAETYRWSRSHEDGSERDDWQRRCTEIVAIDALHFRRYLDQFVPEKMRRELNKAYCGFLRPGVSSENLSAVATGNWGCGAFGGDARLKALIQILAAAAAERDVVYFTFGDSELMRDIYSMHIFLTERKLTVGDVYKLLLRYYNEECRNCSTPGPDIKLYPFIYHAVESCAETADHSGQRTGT

| SMILES | IC50 ([1]; read-out: PARG Biochem IC50) | IC50 [2, 3] | IC50 [1, 4] | IC50 [2, 5] | IC50 [2, 6] |
| --- | --- | --- | --- | --- | --- |
| Cc1cc(Cn2c(=O)c3cc(S(=O)(=O)NC4(C)CC4)ccc3n(CCC(C)C)c2=O)on1 [Example 472, 1-Isopentyl-N-(1-methylcyclopropyl)-3-[(3-methylisoxazol-5-yl)methyl]-2,4-dioxo-quinazoline-6-sulfonamide] | 273 nM | 198 nM |  |  |  |
| Cc1cc(Cn2c(=O)c3cc(S(=O)(=O)NC4(C)CC4)ccc3n(CC3CCC(F)(F)CC3)c2=O)on1 [Example 405, 1-[(4,4-Difluorocyclohexyl)methyl]-N-(1-methylcyclopropyl)-3-[(3-methylisoxazol-5-yl)methyl]-2,4-dioxo-quinazoline-6-sulfonamide] | 248 nM | 144 nM |  |  |  |
| Cc1cc(Cn2c(=O)c3cc(S(=O)(=O)NC4(C)CC4)ccc3n(CCCN3CCN(C)CC3)c2=O)on1 [Example 342] |  |  | 307 nM | 853 nM |  |
| Cc1nc(C)c(Cn2c(=O)n(Cc3cnn(C)c3)c(=O)c3cc(S(=O)(=O)NC4(C)CC4)c(F)cc32)s1 [Example 396, 1-[(2,4-Dimethylthiazol-5-yl)methyl]-7-fluoro-N-(1-methylcyclopropyl)-3-[(1-methylpyrazol-4-yl)methyl]-2,4-dioxo-quinazoline-6-sulfonamide] |  |  | 11 nM | 17 nM |  |
| Cc1ncc(Cn2c(=O)c3cc(S(=O)(=O)NC4(C#N)CC4)ccc3n(Cc3sc(C)nc3C)c2=O)s1 [Example 401, N-(1-Cyanocyclopropyl)-1-[(2,4-dimethylthiazol-5-yl)methyl]-3-[(2-methylthiazol-5-yl)methyl]-2,4-dioxo-quinazoline-6-sulfonamide] | 8 nM | 101 nM |  |  |  |
| CC(=O)NCc1cc(S(=O)(=O)NC2(C)CC2)cc2c(=O)n(Cc3cnn(C)c3)c(=O)[nH]c12 [Example 428, N-[[6-[(1-Methylcyclopropyl)sulfamoyl]-3-[(1-methylpyrazol-4-yl)methyl]-2,4-dioxo-1H-quinazolin-8-yl]methyl]acetamide] | 494 nM | 27000 nM |  |  |  |
| C#CCn1c(=O)n(Cc2cnc(C)s2)c(=O)c2cc(S(=O)(=O)NC3(C#N)CC3)ccc21 [Example 403, N-(1-Cyanocyclopropyl)-3-[(2-methylthiazol-5-yl)methyl]-2,4-dioxo-1-prop-2-ynyl-quinazoline-6-sulfonamide] | 84 nM |  |  |  | 265 nM |
| CC1(NS(=O)(=O)c2ccc3[nH]c(=O)n(CCC#N)c(=O)c3c2)CC1 [Example 496, 3-(2-Cyanoethyl)-N-(1-methylcyclopropyl)-2,4-dioxo-1H-quinazoline-6-sulfonamide] | 2670 nM |  |  |  | 5490 nM |
| Cc1cc(Cn2c(=O)c3cc(S(=O)(=O)NC4(CF)CC4)ccc3n(Cc3csc(C)n3)c2=O)on1 [Example 550, N-[1-(Fluoromethyl)cyclopropyl]-3-[(3-methylisoxazol-5-yl)methyl]-1-[(2-methylthiazol-4-yl)methyl]-2,4-dioxo-quinazoline-6-sulfonamide] | 191 nM |  |  |  | 134 nM |
| Cc1oncc1Cn1c(=O)c2cc(S(=O)(=O)NC3(C)CC3)ccc2n(C)c1=O [Example 506, 1-Methyl-N-(1-methylcyclopropyl)-3-[(5-methylisoxazol-4-yl)methyl]-2,4-dioxo-quinazoline-6-sulfonamide] | 770 nM | 539 nM |  |  |  |
| Cc1ncc(Cn2c(=O)c3cc(S(=O)(=O)NC4(C)CC4)ccc3n(Cc3ccc(F)cc3)c2=O)s1 [Example 176] |  |  | 89 nM | 85 nM |  |
| CCC(=O)Cn1c(=O)c2cc(S(=O)(=O)NC3(C)CC3)ccc2n(C)c1=O [Example 469, 1-Methyl-N-(1-methylcyclopropyl)-2,4-dioxo-3-(2-oxobutyl)quinazoline-6-sulfonamide] | 1200 nM | 663 nM |  |  |  |
| CSCCn1c(=O)n(Cc2cc(C)no2)c(=O)c2cc(S(=O)(=O)NC3(C)CC3)ccc21 [Example 362] |  |  | 331 nM | 126 nM |  |
| Cc1cc(Cn2c(=O)c3cc(S(=O)(=O)NC4(C)CC4)ccc3n(CCCC(C)C)c2=O)on1 [Example 474, 1-Isohexyl-N-(1-methylcyclopropyl)-3-[(3-methylisoxazol-5-yl)methyl]-2,4-dioxo-quinazoline-6-sulfonamide] | 331 nM | 548 nM |  |  |  |
| COc1cccc(Cn2c(=O)n(Cc3cc(C)no3)c(=O)c3cc(S(=O)(=O)NC4(C)CC4)ccc32)c1 [Example 200] |  |  | 250 nM | 223 nM |  |
| Cc1cc(Cn2c(=O)c3cc(S(=O)(=O)NC4(C)CC4)ccc3n(CC3(CO)COC3)c2=O)on1 [Example 340] |  |  | 389 nM | 3480 nM |  |

The next lines start with the values.

| IC50 ([1]; read-out: PARG Biochem IC50) | IC50 [2, 3] | IC50 [1, 4] | IC50 [2, 5] | IC50 [2, 6] | SMILES |
| --- | --- | --- | --- | --- | --- |
|  |  | 256 nM | 187 nM |  | Cn1cc(Cn2c(=O)c3cc(S(=O)(=O)NC4(C)CC4)ccc3n(CCCOC(F)(F)F)c2=O)cn1 [Example 264] |
|  |  | 61 nM | 2880 nM |  | Cc1cc(Cn2c(=O)n(Cc3cnn(C)c3)c(=O)c3cc(S(=O)(=O)NC4(C#N)CC4)ccc32)n(C)n1 [Example 345] |
| 39 nM | 30 nM |  |  |  | Cn1cc(Cn2c(=O)c3cc(S(=O)(=O)NC4(CF)CC4)ccc3n(CC3CCC3)c2=O)cn1 [Example 461, 1-(Cyclobutylmethyl)-N-[1-(fluoromethyl)cyclopropyl]-3-[(1-methylpyrazol-4-yl)methyl]-2,4-dioxo-quinazoline-6-sulfonamide] |
| 63 nM |  |  |  | 90 nM | Cn1cc(Cn2c(=O)c3cc(S(=O)(=O)NC4(CF)CC4)ccc3n(CC3CC(F)(F)C3)c2=O)cn1 [Example 444, 1-[(3,3-Difluorocyclobutyl)methyl]-N-[1-(fluoromethyl)cyclopropyl]-3-[(1-methylpyrazol-4-yl)methyl]-2,4-dioxo-quinazoline-6-sulfonamide] |
|  |  | 52 nM | 126 nM |  | C#CCn1c(=O)n(Cc2cnn(C)c2)c(=O)c2cc(S(=O)(=O)NC3(C)CC3)ccc21 [Example 178] |
| 43 nM | 134 nM |  |  |  | Cn1cc(Cn2c(=O)c3cc(S(=O)(=O)NC4(CF)CC4)ccc3n(CC3CCOCC3)c2=O)cn1 [Example 442, N-[1-(Fluoromethyl)cyclopropyl]-3-[(1-methylpyrazol-4-yl)methyl]-2,4-dioxo-1-(tetrahydropyran-4-ylmethyl)quinazoline-6-sulfonamide] |
| 106 nM | 84 nM |  |  |  | CCn1c(=O)n(Cc2cnn(C)c2)c(=O)c2cc(S(=O)(=O)NC3(CF)CC3)ccc21 [Example 438, 1-Ethyl-N-[1-(fluoromethyl)cyclopropyl]-3-[(1-methylpyrazol-4-yl)methyl]-2,4-dioxo-quinazoline-6-sulfonamide] |
| 310 nM | 420 nM |  |  |  | Cn1cc(Cn2c(=O)c3cc(S(=O)(=O)NC4(CF)CC4)ccc3n(CC#N)c2=O)cn1 [Example 439, 1-(Cyanomethyl)-N-[1-(fluoromethyl)cyclopropyl]-3-[(1-methylpyrazol-4-yl)methyl]-2,4-dioxo-quinazoline-6-sulfonamide] |
| 261 nM |  |  |  | 376 nM | CCCCn1c(=O)n(Cc2cc(C)no2)c(=O)c2cc(S(=O)(=O)NC3(CF)CC3)ccc21 [Example 536, 1-Butyl-N-[1-(fluoromethyl)cyclopropyl]-3-[(3-methylisoxazol-5-yl)methyl]-2,4-dioxo-quinazoline-6-sulfonamide] |
| 225 nM | 855 nM |  |  |  | Cc1nnc(Cn2c(=O)n(Cc3cnn(C)c3)c(=O)c3cc(S(=O)(=O)NC4(CF)CC4)ccc32)o1 [Example 567, N-[1-(Fluoromethyl)cyclopropyl]-1-[(5-methyl-1,3,4-oxadiazol-2-yl)methyl]-3-[(1-methylpyrazol-4-yl)methyl]-2,4-dioxo-quinazoline-6-sulfonamide] |
| 192 nM |  |  |  | 598 nM | Cn1cc(Cn2c(=O)c3cc(S(=O)(=O)NC4(CF)CC4)ccc3n(Cc3ncnn3C)c2=O)cn1 [Example 562, N-[1-(Fluoromethyl)cyclopropyl]-3-[(1-methylpyrazol-4-yl)methyl]-1-[(2-methyl-1,2,4-triazol-3-yl)methyl]-2,4-dioxo-quinazoline-6-sulfonamide] |
| 171 nM |  |  |  | 25800 nM | Cn1cc(Cn2c(=O)c3cc(S(=O)(=O)NC4(CF)CC4)ccc3n(Cc3nncn3C)c2=O)cn1 [Example 584, N-[1-(Fluoromethyl)cyclopropyl]-3-[(1-methylpyrazol-4-yl)methyl]-1-[(4-methyl-1,2,4-triazol-3-yl)methyl]-2,4-dioxo-quinazoline-6-sulfonamide] |
| 100 nM | 86 nM |  |  |  | CCCn1c(=O)n(Cc2cnn(C)c2)c(=O)c2cc(S(=O)(=O)NC3(CF)CC3)ccc21 [Example 597, N-[1-(Fluoromethyl)cyclopropyl]-3-[(1-methylpyrazol-4-yl)methyl]-2,4-dioxo-1-propyl-quinazoline-6-sulfonamide] |
|  |  | 153 nM | 1600 nM |  | COCCn1c(=O)n(Cc2cnn(C)c2)c(=O)c2cc(S(=O)(=O)NC3(C#N)CC3)ccc21 [Example 357] |
| 111 nM | 669 nM |  |  |  | Cn1cc(Cn2c(=O)c3cc(S(=O)(=O)NC4(CF)CC4)ccc3n(Cc3ccncc3)c2=O)cn1 [Example 610, N-[1-(Fluoromethyl)cyclopropyl]-3-[(1-methylpyrazol-4-yl)methyl]-2,4-dioxo-1-(4-pyridylmethyl)quinazoline-6-sulfonamide] |
| 102 nM | 417 nM |  |  |  | Cn1cc(Cn2c(=O)c3cc(S(=O)(=O)NC4(CF)CC4)ccc3n(CC3COC3)c2=O)cn1 [Example 445, N-[1-(Fluoromethyl)cyclopropyl]-3-[(1-methylpyrazol-4-yl)methyl]-1-(oxetan-3-ylmethyl)-2,4-dioxo-quinazoline-6-sulfonamide] |
| 58 nM | 70 nM |  |  |  | Cn1cc(Cn2c(=O)c3cc(S(=O)(=O)NC4(CF)CC4)ccc3n(Cc3ccc(C#N)cc3)c2=O)cn1 [Example 543, 1-[(4-Cyanophenyl)methyl]-N-[1-(fluoromethyl)cyclopropyl]-3-[(1-methylpyrazol-4-yl)methyl]-2,4-dioxo-quinazoline-6-sulfonamide] |
